Laboratory results published in the supplement of paper PMC10307832.

What was measured:
Test in all cases: relative viability (nuclei count vs DMSO), 5 days (fraction); higher = more cells survive
[1] = compound: CCC1=CN=CN=C1N2CCN(CC2)CC3=NC4=C(N3)C=C(C=C4)C(F)(F)F + CC1(C)CCC(c2ccc(Cl)cc2)=C(CN2CCN(c3ccc(C(=O)NS(=O)(=O)c4ccc(N[C@H](CCN5CCOCC5)CSc5ccccc5)c(S(=O)(=O)C(F)(F)F)c4)cc3)CC2)C1 [Navitoclax] (partner 0.5 µM)
Method in brief: (§1)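 Relative viability was taken as the ratio of nuclei in treated wells to nuclei in vehicle wells. Lung cancer cell lines in 1536-well plates received compounds by pin tool one day after seeding, either one drug alone or a fixed anchor-drug dose plus five library-drug doses (not always all listed) in √10 steps. Nuclei were counted on 4× images after 5 days of treatment, and values are medians of duplicate plates.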

[2] = compound: CCn1c(-c2nonc2N)nc2cnc(Oc3cccc(NC(=O)c4ccc(OCCN5CCOCC5)cc4)c3)cc21 + CC(=O)c1c(C)c2cnc(Nc3ccc(N4CCNCC4)cn3)nc2n(C2CCCC2)c1=O [Palbociclib] (partner 0.5 µM)
Method in brief: as §1

[3] = compound: CCn1c(-c2nonc2N)nc2cnc(Oc3cccc(NC(=O)c4ccc(OCCN5CCOCC5)cc4)c3)cc21 + CC1(C)CCC(c2ccc(Cl)cc2)=C(CN2CCN(c3ccc(C(=O)NS(=O)(=O)c4ccc(N[C@H](CCN5CCOCC5)CSc5ccccc5)c(S(=O)(=O)C(F)(F)F)c4)cc3)CC2)C1 [Navitoclax] (partner 0.5 µM)
Method in brief: as §1

Mirin + Pemetrexed = compound: N=C1NC(=O)/C(=C/c2ccc(O)cc2)S1 [Mirin] + Nc1nc2[nH]cc(CCc3ccc(C(=O)N[C@@H](CCC(=O)O)C(=O)O)cc3)c2c(=O)[nH]1 [Pemetrexed] (partner 0.2 µM)
Method in brief: as §1

Cell Line	relative viability ([1]; first compound 0.04 µM)	relative viability ([1]; first compound 0.1265 µM)	relative viability ([1]; first compound 0.4 µM)	relative viability ([1]; first compound 1.265 µM)	relative viability ([1]; first compound 4 µM)	relative viability ([2]; first compound 0.04 µM)	relative viability ([2]; first compound 0.1265 µM)	relative viability ([2]; first compound 0.4 µM)	relative viability ([2]; first compound 1.265 µM)	relative viability ([2]; first compound 4 µM)	relative viability ([3]; first compound 0.04 µM)	relative viability ([3]; first compound 0.1265 µM)	relative viability ([3]; first compound 0.4 µM)	relative viability ([3]; first compound 1.265 µM)	relative viability ([3]; first compound 4 µM)	relative viability (Mirin + Pemetrexed; first compound 0.25 µM)	relative viability (Mirin + Pemetrexed; first compound 0.7906 µM)	relative viability (Mirin + Pemetrexed; first compound 2.5 µM)	relative viability (Mirin + Pemetrexed; first compound 7.906 µM)	relative viability (Mirin + Pemetrexed; first compound 25 µM)
NCI-H1666	0.975	0.836	0.962	0.817	0.846	0.635	0.64	0.613	0.57	0.538	1.09	1.28	1.07	0.648	0.495	0.821	0.805	0.827	0.875	0.841
NCI-H1915	0.819	0.735	0.847	0.722	0.809	0.522	0.524	0.516	0.386	0.376	0.829	0.797	0.764	0.575	0.762	0.469	0.484	0.504	0.434	0.433
NCI-H2009	1.19	1.16	1.09	1.1	1.09	0.175	0.196	0.141	0.112	0.19	1.09	0.971	0.999	0.561	0.384	1.05	1.11	1.01	0.964	1.16
ChaGo-K-1		1	0.927	0.936	0.942	1.08	0.896	0.846	0.907	0.928	1.42	0.876	0.762		0.712	0.263	0.252	0.255	0.259	0.256
COR-L 105	0.714	0.717	0.695	0.868	0.651	0.407	0.402	0.344	0.36	0.336	0.618	0.762	0.522	0.262	0.355	1.08	1.21	1.11	1.11	1.07
NCI-H2170	0.561	0.69	0.534	0.608	0.608	0.434	0.405	0.378	0.408	0.407	0.392	0.602	0.539	0.626	0.633	0.249	0.282	0.268	0.263	0.28
A549	1.14	1.13	1.12	1.16	0.945						1.37	1.08	0.828	0.0937	0.0515					
NCI-H1975	1.15	1.08	1.06	0.879	0.931	0.476	0.446	0.273	0.23	0.474	0.827	0.818	0.763	0.372	0.286	0.324	0.256	0.272	0.274	0.252
Calu-6	0.818	0.779	0.721	0.713	0.717						0.835	0.759	0.64	0.353	0.306					
